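All cell lines were grown in 96-well plates and treated with compound for 48 hours. GI50 = concentration required for 50% inhibition of growth. Definition used: TGI = concentration required for complete inhibition of growth.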

In the first test the test system is NCI-H226 lung. The experiment in a line: growth of human tumour cells (NCI), 48 h.
The compound `CCN(CC)/C(SCc1ccccc1)=C(\C(Cl)=C(Cl)Cl)[N+](=O)[O-]` yielded a TGI of 39.1 µM.

The compound `CC(=O)/C(=C\c1cccc([N+](=O)[O-])c1)C(=O)Nc1ccccc1C` returned a TGI of over 100 µM.

In turn, `CCN1c2ccccc2C(C(SC)S(=O)(=O)c2ccc(C)cc2)c2c1[nH]c(=O)n(C)c2=O` (configuration not stated) came in with a TGI of over 100 µM.

For the compound `COC(OC)C(C)CC(=O)N(C)C` (configuration not stated), the TGI was over 100 µM.

The next test has as its system OVCAR-5 ovarian. The experiment in a line: growth of human tumour cells (NCI), 48 h.
The compound `O=c1cc(-c2ccccc2)oc2cc(OCCCOc3ccc4c(=O)cc(-c5ccccc5)oc4c3)ccc12` showed a TGI of over 100 µM.

On to `Clc1ccc(C(c2ccc(Cl)cc2)c2ccccn2)cc1`, for which the TGI was 29.5 µM.

Turning to `CC(C)=Cc1cc(C(=O)Nc2ccc(Cl)c(Cl)c2)nc(N)n1`, the TGI is over 100 µM.

Turning to `CCN1CCN(c2nc(C)cc(N(CCNc3ccnc4cc(Cl)ccc34)Cc3ccc4c(c3)OCO4)n2)CC1`, the GI50 is 3.58 µM and the TGI was 13.6 µM.

Take `Cn1cnc([N+](=O)[O-])c1Sc1nc2ccccc2[nH]1`: the TGI was over 100 µM.

As for `COc1cc(NCc2ccc3oc(=O)c(-c4ccccc4)nc3c2)cc(OC)c1OC`, the TGI was over 10 µM.

Compound `CCOC(=O)NC(=O)c1cn(CCCO)c(=O)[nH]c1=O` had a TGI of over 100 µM.

In the case of `CN(C)c1nc(=Nc2ccc(N=c3nc(N(C)C)ss3)cc2)ss1`, the TGI was over 100 µM.

In turn, `CCCC(=O)OC1CC(n2cc(F)c(=O)[nH]c2=O)OC1COP(=O)(OCC(Cl)(Cl)Cl)OCC(Cl)(Cl)Cl` (configuration not stated) came in with a TGI of over 100 µM.

For the compound `O=[N+]([O-])C(/C=C(\Cl)n1nnc2ccccc21)=C(/Cl)n1nnc2ccccc21`, the TGI was over 100 µM.

Regarding `CCc1cc(Cc2cc(CC)c(NC(=O)C(=O)Cc3ccccn3)c(CC)c2Cl)c(Cl)c(CC)c1NC(=O)C(=O)Cc1ccccn1`, the TGI was over 100 µM.

Regarding `C[Si](C)(C)C1(Sc2ccccc2)SCCCS1`, the TGI was over 100 µM.

The compound `c1ccc(COc2cccc3ccc[n+](Cc4ccccc4)c23)cc1` registered a TGI of 9.98 µM.

The compound `CC1(C)C2CCC(=O)C1CC2` (configuration not stated) returned a TGI of over 100 µM.

In turn, `CCOC(=O)C(=C=C=C(c1ccccc1)c1ccccc1)C(=O)OCC` displayed a TGI of 35.5 µM.

`CC1=CC(O)(c2ccc(-c3ccccc3Cl)cc2)OC1=O` (configuration not stated) had a TGI of over 100 µM.

Turning to `C/C(=N\NC(=S)NC(CCC(=O)O)C(=O)O)c1ccccn1` (configuration not stated), the TGI is over 100 µM.

Compound `C#CC1(O)CCC2C3CCc4cc(Oc5nc(F)nc(-c6c7ccccc7c7sc8ccccc8n67)n5)ccc4C3CC[C@@]21C` (some centres not stated) gave a TGI of over 100 µM.

With `Cc1cccc2c1CC1(C2)Cc2c(C)cccc2C1=O` (configuration not stated), the TGI is over 100 µM.

With `Cc1c2c(nn1-c1ccc(S(=O)(=O)/N=C3\SCCC(=O)N3c3ccccc3)cc1)-c1ccccc1CC2`, the GI50 is over 100 µM and the TGI is over 100 µM.

Take `O=C1NCC2(CCN(CCCC3(c4ccc(F)cc4)OCCO3)CC2)N1c1ccccc1`: the TGI is over 100 µM.

As for `CCN(CC)/C(SCc1ccccc1)=C(\C(Cl)=C(Cl)Cl)[N+](=O)[O-]`, the TGI was found to be 41.2 µM.

The compound `CC(=O)/C(=C\c1cccc([N+](=O)[O-])c1)C(=O)Nc1ccccc1C` returned a TGI of over 100 µM.

For the compound `CCN1c2ccccc2C(C(SC)S(=O)(=O)c2ccc(C)cc2)c2c1[nH]c(=O)n(C)c2=O` (configuration not stated), the TGI is over 100 µM.

`COC(OC)C(C)CC(=O)N(C)C` (configuration not stated) showed a TGI of over 100 µM.

Another test relates to OVCAR-8 ovarian. Briefly: growth of human tumour cells (NCI), 48 h.
In turn, `O=c1cc(-c2ccccc2)oc2cc(OCCCOc3ccc4c(=O)cc(-c5ccccc5)oc4c3)ccc12` showed a TGI of over 100 µM.

Compound `Clc1ccc(C(c2ccc(Cl)cc2)c2ccccn2)cc1` yielded a TGI of 33.8 µM.

Take `CC(C)=Cc1cc(C(=O)Nc2ccc(Cl)c(Cl)c2)nc(N)n1`: the TGI is over 100 µM.

With `CCN1CCN(c2nc(C)cc(N(CCNc3ccnc4cc(Cl)ccc34)Cc3ccc4c(c3)OCO4)n2)CC1`, the GI50 was 2.69 µM and the TGI is 7.9 µM.

Turning to `Cn1cnc([N+](=O)[O-])c1Sc1nc2ccccc2[nH]1`, the TGI amounted to 30.4 µM.

The compound `CCCCCCN(CCCCCC)C(=O)Cc1c2n(c3ccccc13)Cc1ccccc1-2` had a TGI of over 100 µM.

With `COc1cc(NCc2ccc3oc(=O)c(-c4ccccc4)nc3c2)cc(OC)c1OC`, the TGI was over 10 µM.

For `CC(=O)OC1COC(n2ccc3cc(Br)c([N+](=O)[O-])cc32)C(OC(C)=O)C1OC(C)=O` (configuration not stated), the TGI was determined as 82.1 µM.

On to `CCOC(=O)NC(=O)c1cn(CCCO)c(=O)[nH]c1=O`, for which the TGI is over 100 µM.

`CN(C)c1nc(=Nc2ccc(N=c3nc(N(C)C)ss3)cc2)ss1` returned a TGI of 34.2 µM.

`CCCC(=O)OC1CC(n2cc(F)c(=O)[nH]c2=O)OC1COP(=O)(OCC(Cl)(Cl)Cl)OCC(Cl)(Cl)Cl` (configuration not stated) gave a TGI of over 100 µM.

For the compound `CCc1cc(Cc2cc(CC)c(NC(=O)C(=O)Cc3ccccn3)c(CC)c2Cl)c(Cl)c(CC)c1NC(=O)C(=O)Cc1ccccn1`, the TGI was over 100 µM.

Turning to `C[Si](C)(C)C1(Sc2ccccc2)SCCCS1`, the TGI was over 100 µM.

On to `CC1(C)C2CCC(=O)C1CC2` (configuration not stated), for which the TGI was over 100 µM.

In turn, `O=S1(=O)OCCOS(=O)(=O)C1Br` had a TGI of over 100 µM.

For `CCOC(=O)C(=C=C=C(c1ccccc1)c1ccccc1)C(=O)OCC`, the TGI worked out at 50.3 µM.

For the compound `CC1=CC(O)(c2ccc(-c3ccccc3Cl)cc2)OC1=O` (configuration not stated), the TGI was over 100 µM.

In turn, `C/C(=N\NC(=S)NC(CCC(=O)O)C(=O)O)c1ccccn1` (configuration not stated) came in with a TGI of over 100 µM.

Take `C#CC1(O)CCC2C3CCc4cc(Oc5nc(F)nc(-c6c7ccccc7c7sc8ccccc8n67)n5)ccc4C3CC[C@@]21C` (some centres not stated): the TGI is over 100 µM.

The compound `Cc1cccc2c1CC1(C2)Cc2c(C)cccc2C1=O` (configuration not stated) gave a TGI of over 100 µM.

`Cc1c2c(nn1-c1ccc(S(=O)(=O)/N=C3\SCCC(=O)N3c3ccccc3)cc1)-c1ccccc1CC2`: the GI50 was 89.6 µM and the TGI is over 100 µM.

For `Cc1ccc(NC(=O)c2cc3cc(N=Nc4ccccc4C(=O)O)ccc3oc2=O)cc1`, the TGI was over 100 µM.

For the compound `COc1ccc(S(=O)(=O)NNS(C)(=O)=O)cc1`, the TGI was over 100 µM.

`O=C(/C=C\c1ccc(Cl)c(Cl)c1)c1ccc(Cl)cc1Cl` showed a TGI of 38 µM.

As for `O=C1NCC2(CCN(CCCC3(c4ccc(F)cc4)OCCO3)CC2)N1c1ccccc1`, the TGI is over 100 µM.

Compound `CCN(CC)/C(SCc1ccccc1)=C(\C(Cl)=C(Cl)Cl)[N+](=O)[O-]` came in with a TGI of 31.7 µM.

In the case of `CCN1c2ccccc2C(C(SC)S(=O)(=O)c2ccc(C)cc2)c2c1[nH]c(=O)n(C)c2=O` (configuration not stated), the TGI was over 100 µM.

`COC(OC)C(C)CC(=O)N(C)C` (configuration not stated) had a TGI of over 100 µM.

Another test deals with U251 CNS. The experiment in a line: growth of human tumour cells (NCI), 48 h.
`O=c1cc(-c2ccccc2)oc2cc(OCCCOc3ccc4c(=O)cc(-c5ccccc5)oc4c3)ccc12` showed a TGI of over 100 µM.

The values are drawn from PubChem BioAssay (NCI).
